Test results from US8058243B2, “Method for treating a brain cancer with ifenprodil” (HSC Research and Development Limited Partnership, priority 2006, dated 2011).
Where a name gives a salt, the structure may show the parent alone. Read-outs that look alike come from different tables or passages of the source. One block for each compound: values may come before it.

Assays:
[1] = tested on: murine neural precursor cells (neurosphere cultures); assay: HTS of LOPAC library against secondary neurosphere cultures, MTT proliferation assay at 3 μM, day 7 (z score, P value); assay type: cell-based, mouse
[2] = tested on: ptc1+/− medulloblastoma precursor cells (neurosphere cultures); assay: Medulloblastoma tumor sphere MTT proliferation EC50; assay type: cell-based, mouse
From the text: Astrocyte Screen and Neurosphere Selectivity Assessment. […] Murine Medulloblastoma Generation and Culture. […] Flow Cytometry. […] Results

[3] = tested on: mouse NSC neurosphere cultures; assay: Dose-response curves and EC50, neurosphere MTT proliferation, 7 days; assay type: cell-based
[4] = tested on: hGBM1 precursors (WHO grade IV GBM); assay: Human glioblastoma precursor EC50 (hGBM1); assay type: cell-based; conditions: Homo sapiens
[5] = tested on: hGBM2 precursors (WHO grade IV GBM, giant cell variant); assay: Human glioblastoma precursor EC50 (hGBM2); assay type: cell-based; conditions: Homo sapiens
[6] = LOPAC library screen, 3 μM, MTT, secondary neurosphere cultures, day 7
[7] = LOPAC primary screen, neurosphere MTT proliferation, 3 μM, day 7
[8] = yes/no: significantly inhibited neurosphere proliferation (P<0.01) in the primary screen
[9] = Mus musculus, ptc1+/− medulloblastoma derived neurospheres, read-out: Medulloblastoma Neurosphere EC50
[10] = cultures derived from mouse cerebellar tumor samples, read-out: Ptch1+/− neurosphere EC50
[11] = 168 h, normal mouse neurosphere cultures, MTT, 7 days, read-out: Neurosphere EC50
[12] = Mus musculus, read-out: EC 50% Neurosphere, Table 5
[13] = Mus musculus, Table 8, read-out: Neurosphere EC50
[14] = Table 8, read-out: Neurosphere EC50
[15] = yes = significantly inhibited neurosphere proliferation (P<0.01) in the primary screen
[16] = yes/no: significantly inhibited neurosphere proliferation (P<0.01) in primary screen
[17] = yes/no: significantly inhibited neurosphere proliferation in primary screen
[18] = yes/no: significantly inhibited neurosphere proliferation in the primary screen
[19] = LOPAC library screen, 3 μM, MTT, neurosphere cultures

- EC50 [2, 9]: 204 nM
- EC50 [2, 10]: 204 nM
Compound: CC1=C(/C=C/C(C)=C/C=C/C(C)=C/C(=O)Nc2ccc(O)cc2)C(C)(C)CCC1 [Fenretinide (11), Retinoic acid p-hydroxyanilide]
- Z Score [1, 6]: −6.013
- Z score [1, 7]: −6.013
- Activity [1, 8]: yes
- EC50 [3, 11]: 334 nM
- EC50 [3, 12]: 334 nM
- EC50 [3, 13]: 334 nM

Compound: COc1cc(CNC(=O)CCCCCCC(C)C)ccc1O [Dihydrocapsaicin (15), Dihydrocapsaicin]
- EC50 [4]: 88600 nM
- EC50 [5]: 21500 nM
- Z Score [1, 6]: −10
- Z score [1, 7]: −10.003
- Activity [1, 8]: yes
- EC50 [2, 9]: 20 nM
- EC50 [2, 10]: 20 nM

Compound: COc1ccc(CCNC[C@H](O)c2ccc(O)cc2)cc1OC [R(−)-Denopamine (24), R(−)-Denopamine]
- EC50 [3, 14]: 39200 nM

Compound: Tyrphoslin AG 34 [Tyrphoslin AG 34 (37)]
- EC50 [3, 14]: 9920 nM

- EC50 [4]: 5440 nM
- EC50 [5]: 1730 nM
- EC50 [2, 9]: 2080 nM
- EC50 [2, 10]: 2080 nM
Compound: CCN(CC)CCOCCOC(=O)C1(c2ccccc2)CCCC1 [Carbetapentane (10), Carbetapentane]
- Z Score [1, 6]: −8.021
- Z score [1, 7]: −8.021
- Activity [1, 8]: yes
- EC50 [3, 11]: 756 nM
- EC50 [3, 12]: 756 nM
- EC50 [3, 13]: 756 nM

Compound: O=c1c(O)c(-c2cc(O)c(O)c(O)c2)oc2cc(O)cc(O)c12 [Myricetin]
- Z Score [1]: −0.9113
- Z score [1, 7]: −0.911
- Activity [1, 15]: no

Compound: N[C@@H](Cc1ccc(O)c(I)c1)C(=O)O [3-Iodo-L-tyrosine]
- Z Score ([1]; 168 h, 3 µM): −0.04844
- Z score ([1]; 168 h, 3 µM): −0.048
- Activity [1, 16]: no

Compound: COc1ccc(C(=O)NCc2cccnc2)cc1C(=O)NCc1cccnc1 [Picotamide]
- Z Score ([1]; LOPAC library screen at 3 μM, MTT, secondary neurosphere cultures, screened in singlets): 1.736
- Z score [1, 7]: 1.736
- Activity [1, 17]: no

Compound: CCN(c1nc(N)c(C(=O)N=C(N)N)nc1Cl)C(C)C [5-(N-Ethyl-N-isopropyl)amiloride]
- Z Score [1]: −0.2886
- Z score ([1]; primary LOPAC screen, 3 μM, MTT, neurosphere proliferation): −0.289
- Activity [1, 18]: no

Compound: O=C(O)CCc1nc(-c2ccccc2)c(-c2ccccc2)o1 [Oxaprozin]
- Z Score [1, 19]: 0.06616
- Z score [1, 7]: 0.066
- Activity [1, 17]: no

Compound: O=c1cc(-c2ccc(O)cc2)oc2cc(O)cc(O)c12 [Apigenin]
- Z Score ([1]; 168 h, 3 µM): 1.824
- Z score ([1]; 168 h, 3 µM): 1.824
- Activity [1, 18]: no

Compound: NC(N)=NCCCCN=C(N)N [Arcaine sulfate]
- Z Score ([1]; LOPAC library screen at 3 μM, secondary neurosphere cultures, MTT): −0.3299
- Z score [1, 7]: −0.330
- Activity [1, 17]: no

Compound: CC1CCCC=CC2CC(O)CC2C(O)C=CC(=O)O1 (centres unmarked)
- Z Score [1]: −11.27
- Z score [1, 7]: −11.274
- Activity [1, 15]: yes

Compound: Nc1nc(N)c2nc(-c3ccccc3)c(N)nc2n1 [Triamterene]
- Z Score [1, 6]: −4.642
- Z score [1, 7]: −4.642
- Activity [1, 15]: yes

Compound: O=C(O)c1ccccc1Nc1ccccc1 [N-Phenylanthranilic acid]
- Z Score [1, 6]: −1.61
- Z score [1, 7]: −1.610
- Activity [1, 17]: no

Compound: CN(CCOc1ccc(C[C@H](Nc2ccccc2C(=O)c2ccccc2)C(=O)O)cc1)c1ccccn1 [GW1929]
- Z Score [1]: 0.01508
- Z score [1, 7]: 0.015
- Activity [1, 16]: no

Compound: CC(C)C(=O)c1c(C(C)C)nn2ccccc12 [Ibudilast]
- Z Score [1, 19]: 0.3787
- Z score [1, 7]: 0.379
